Measurements as given in ChEMBL document CHEMBL1121589, “Synthesis and biological activities of 5-(hydroxymethyl, azidomethyl, or aminomethyl)-2'-deoxyuridine and related 5'-substituted analogues” (J Med Chem, 1980).

What was measured:
Assay type in all cases: functional
Human alphaherpesvirus 1 [1] = assay: Kinetic inhibition constant against herpes simplex virus type I pyrimidine deoxyribonucleoside kinase was measured
Human alphaherpesvirus 1 [2] = assay: Antiviral activity against herpes simplex virus type I was measured at 5 uM concentration.
Human alphaherpesvirus 1 [3] = assay: Antiviral activity against herpes simplex virus type I was measured at 400 uM concentration.
[4] = Inhibitory activity against growth of sarcoma 180 cells at 1 uM; conditions: Mus musculus, read-out: ED50 (the source's name)
L1210 [5] = assay: Compound tested for inhibition of the replication of L1210 cells in cell culture at 7 uM; conditions: Mus musculus
L1210 [6] = assay: Compound tested for inhibition of the replication of L1210 cells in cell culture; conditions: Mus musculus, read-out: ED50 (the source's name)
Human alphaherpesvirus 1 [7] = assay: Antiviral activity against herpes simplex virus type I was measured at 200 uM concentration.
L1210 [8] = assay: Compound tested for inhibition of the replication of L1210 cells in cell culture at 200 uM; conditions: Mus musculus

Compound: O=c1[nH]c(=O)n([C@H]2C[C@H](O)[C@@H](CO)O2)cc1I [IDOXURIDINE]
- Ki (Human alphaherpesvirus 1 [1]): 0.4 µM
- Control (Human alphaherpesvirus 1 [2]): 2%

Compound: NCc1cn([C@H]2C[C@H](O)[C@@H](CO)O2)c(=O)[nH]c1=O
- Ki (Human alphaherpesvirus 1 [1]): 36 µM
- Control (Human alphaherpesvirus 1 [3]): 100%
- EC50 [4]: 0.16 µM
- inhibition at 7 µM (L1210 [5]): 93%
- EC50 (L1210 [6]): 2 µM

Compound: NCc1cn([C@H]2C[C@H](O)[C@@H](CN)O2)c(=O)[nH]c1=O
- Ki (Human alphaherpesvirus 1 [1]): > 500 µM
- Control (Human alphaherpesvirus 1 [3]): 100%

Compound: O=c1[nH]c(=O)n([C@H]2C[C@H](O)[C@@H](CO)O2)cc1CO
- Ki (Human alphaherpesvirus 1 [1]): 3.5 µM
- Control (Human alphaherpesvirus 1 [7]): 0.05%

Compound: [N-]=[N+]=NC[C@H]1O[C@@H](n2cc(CO)c(=O)[nH]c2=O)C[C@@H]1O
- Ki (Human alphaherpesvirus 1 [1]): 31 µM
- Control (Human alphaherpesvirus 1 [7]): 100%

Compound: [N-]=[N+]=NCc1cn([C@H]2C[C@H](O)[C@@H](CN=[N+]=[N-])O2)c(=O)[nH]c1=O
- Ki (Human alphaherpesvirus 1 [1]): 62 µM
- Control (Human alphaherpesvirus 1 [3]): 100%

Compound: NC[C@H]1O[C@@H](n2cc(CO)c(=O)[nH]c2=O)C[C@@H]1O
- Ki (Human alphaherpesvirus 1 [1]): 530 µM
- Control (Human alphaherpesvirus 1 [3]): 100%

Compound: [N-]=[N+]=NCc1cn([C@H]2C[C@H](O)[C@@H](CO)O2)c(=O)[nH]c1=O
- Ki (Human alphaherpesvirus 1 [1]): 0.8 µM
- Control (Human alphaherpesvirus 1 [7]): 0.5%
- inhibition at 200 µM (L1210 [8]): 96%
- EC50 (L1210 [6]): 90 µM
